The text below walks through data of patent US9199918B2, “Small molecule inhibitors of AGBL2” (Georgetown University, priority 2011, dated 2015).

Test [1] concerns the target T1, AGBL2 (Homo sapiens, UniProt Q5U5Z8).
T1 construct: His (N); made in house; protein recovered from inclusion bodies
T1 sequence (Q5U5Z8 1-902): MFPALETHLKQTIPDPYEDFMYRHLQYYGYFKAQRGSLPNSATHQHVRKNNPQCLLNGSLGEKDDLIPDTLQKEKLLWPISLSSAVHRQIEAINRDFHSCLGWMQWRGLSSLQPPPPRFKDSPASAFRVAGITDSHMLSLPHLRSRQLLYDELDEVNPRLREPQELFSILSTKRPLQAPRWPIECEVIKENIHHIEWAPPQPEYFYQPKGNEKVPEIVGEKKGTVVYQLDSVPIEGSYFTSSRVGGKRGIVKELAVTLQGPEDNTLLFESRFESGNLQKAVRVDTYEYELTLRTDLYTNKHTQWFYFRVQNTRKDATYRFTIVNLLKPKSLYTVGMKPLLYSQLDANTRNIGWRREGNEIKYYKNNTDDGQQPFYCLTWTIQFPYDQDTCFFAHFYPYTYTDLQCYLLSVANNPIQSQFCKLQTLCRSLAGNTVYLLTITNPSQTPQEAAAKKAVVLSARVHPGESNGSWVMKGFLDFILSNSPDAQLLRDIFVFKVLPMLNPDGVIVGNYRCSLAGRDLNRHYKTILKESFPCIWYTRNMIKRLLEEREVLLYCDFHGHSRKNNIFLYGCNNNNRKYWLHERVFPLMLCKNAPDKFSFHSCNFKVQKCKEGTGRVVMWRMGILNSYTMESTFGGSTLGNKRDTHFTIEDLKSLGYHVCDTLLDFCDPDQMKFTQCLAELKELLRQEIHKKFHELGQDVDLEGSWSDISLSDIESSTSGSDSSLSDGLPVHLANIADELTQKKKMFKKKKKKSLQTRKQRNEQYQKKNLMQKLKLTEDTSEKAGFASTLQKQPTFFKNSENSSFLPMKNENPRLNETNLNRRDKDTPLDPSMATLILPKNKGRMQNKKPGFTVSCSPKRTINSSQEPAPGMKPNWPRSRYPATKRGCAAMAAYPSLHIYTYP
Briefly: Enzyme inhibition kinetic assay (fluorometric, release of tyrosine from hydroxycoumarin-conjugated tubulin CTT substrate). To be noted: 1 nM recombinant AGBL2; substrate 1 μM; 25° C., pH 7.5; apparent Ki fitted to Morrison equation for tight-binding inhibitors. Format: biochemical. An excerpt:
Fluorescence Resonance Energy Transfer (FRET) principle can be applied to generate real-time enzymatic activity data. The tyrosinated C-terminal tail of tubulin has a tyrosine at the C-terminal. Tyrosines absorb at 270 nm and emit in the 280 to 350 nm range with a λMax=303 nm. Adding a hydroxycoumarin that absorbs in the range of 300 to 350 nm to the N-terminal of the CTT of tubulin (see FIG. 5) allows the quenching of the tyrosine emission that can be monitored at 303 nm. Emissions at 303 nm can be detected after the cleavage of the tyrosine residue since the latter will follow a Brownian motion and become physical situated far from the quencher (Hydroxycoumarin). Assays can be performed at 25° C. in 10 mM CaCl2, 0.2 M NaCl, and 0.05% Brij-35 in 50 mM HEPES, pH 7.5, over a substrate concentration range of […] and an enzyme concentration range of 0.1-50 nM. An exemplary assay was performed by incubating 186 μL of buffer solution, 4 μL of substrate solution, and then adding 10 μL of AGBL2 solution. The mixture was then incubated for 15 to 120 minutes at 25° C.
Kinetic assays of the inhibition of AGBL2 were carried out using the substrate described in Example 4 to measure inhibition constants. Enzymatic assays were performed at 25° C. in 50 mM HEPES buffer at pH 7.5 in the presence of 10 mM CaCl2, 0.2 M NaCl, and 0.01% or 0.05% Brij-35 with substrate concentrations of 1 μM. The release of tyrosine was monitored by measuring fluorescence (excitation and emission wavelengths of 270 nm and 303 nm, respectively). The compounds tested as inhibitors included compound Sd-1, compound Sd-2, compound Sd-3, and compound Sd-4. All stock solutions of inhibitors were in methanol. For inhibition assays, 10 μL of inhibitor stock solution, 176 μL of assay buffer, and 10 μL of enzyme stock solution were mixed and incubated for 30 to 60 minutes prior to initiation of the assay, which was accomplished by adding and mixing 4 μL of substrate stock solution. Enzyme concentrations ranged from 0.2 to 7 nM during the assay. Apparent inhibition constant (Ki^app) values were calculated by fitting the kinetics data to the Morrison equation for tight-binding inhibitors, where vi and vo are the initial rates with and without inhibitor, respectively, and [E]o and [I]o are the initial (total) enzyme and inhibitor concentrations, respectively. The Ki values of the four tested compounds and of recombinant RARRES1, all including 1 nM of recombinant AGBL2) are shown in Table 1.

In test [2] the target is T1, AGBL2. Briefly: High throughput enzyme kinetic (FRET) assay, saturation curves in the presence of inhibitor. Format: biochemical. The settings on record: AGBL2 1 nM; Sd-4 at 1 nM, 5 nM and 10 nM; substrate 0 to 3 μM. An excerpt:
Fluorescence Resonance Energy Transfer (FRET) principle can be applied to generate real-time enzymatic activity data. The tyrosinated C-terminal tail of tubulin has a tyrosine at the C-terminal. Tyrosines absorb at 270 nm and emit in the 280 to 350 nm range with a λMax=303 nm. Adding a hydroxycoumarin that absorbs in the range of 300 to 350 nm to the N-terminal of the CTT of tubulin (see FIG. 5) allows the quenching of the tyrosine emission that can be monitored at 303 nm. Emissions at 303 nm can be detected after the cleavage of the tyrosine residue since the latter will follow a Brownian motion and become physical situated far from the quencher (Hydroxycoumarin). […]
The reaction rate can be analyzed using different substrate concentrations and the saturation curve can be drawn. The maximum reaction rate (Vmax) and the substrate concentration at half the Vmax referred to as the Michaelis-Menten constant (KM) can be determined from the saturation curve. Inhibitors can also be analyzed and a saturation curve in the presence of inhibitor can be drawn. The reaction rate was analyzed using substrate concentrations over a range of 0 to 3 μM. […] The dissociation constant of the inhibitor (Ki) can be calculated using the following equation: Ki=[Inhibitor]/((KM,obs/KM)−1.0).

For the molecule `CC(C)c1ccc(Sc2ccc(F)cc2CC(=O)O)cc1` [Sd-3], the Ki at AGBL2 [1] was determined as 428 nM. For `O=C(O)Cc1cccc(C(=O)Nc2ccc3c(c2)OCO3)c1` [Sd-4], the “inhibition of AGBL2 activity at varying substrate concentrations (FIG. 6)” value at AGBL2 [2] was “inhibition of AGBL2 activity”. Besides, the Ki at AGBL2 [1] was 4.89 nM. With `Cc1cc(F)cnc1CC(=O)O` [Sd-1], at AGBL2 [1], the Ki came out at 173 nM. Same read-out and setting: then `Cc1cc(C(F)(F)F)cnc1CC(=O)O` [Sd-2], with 87 nM.

B1: RARRES1: recombinant N-His RARRES1 protein (MW ~31 kDa) obtained from inclusion bodies (protein, UniProt P49788 1-294, looked up)
Retinoic acid receptor …: MQPRRQRLPAPWSGPRGPRPTAPLLALLLLLAPVAAPAGSGDPDDPGQPQDAGVPRRLLQQAARAALHFFNFRSGSPSALRVLAEVQEGRAWINPKEGCKVHVVFSTERYNPESLLQEGEGRLGKCSARVFFKNQKPRPTINVTCTRLIEKKKRQQEDYLLYKQMKQLKNPLEIVSIPDNHGHIDPSLRLIWDLAFLGSSYVMWEMTTQVSHYYLAQLTSVRQWKTNDDTIDFDYTVLLHELSTQEIIPCRIHLVWYPGKPLKVKYHCQELQTPEEASGTEEGSAVVPTELSNF
modifications: N-terminal His tag
notes: recombinant N-His RARRES1 protein (MW ~31 kDa) obtained from inclusion bodies
Consider B1, for which the Ki with AGBL2 [1] came to 27 nM.
